From US20120015961A1, “ISOTHIOUREA DERIVATIVES OR ISOUREA DERIVATIVES HAVING BACE1 INHIBITORY ACTIVITY” (SHIONOGI & CO., LTD., priority 2009, published 2012)

What was measured:
Recombinant human BACE1 = target: T1, Recombinant human BACE1 (Homo sapiens, UniProt P56817); assay: Assay of BACE1 inhibiting activity; type: biochemical; settings: 50% inhibitory concentration against enzymatic activity, pH 5.0, 30° C., 3 hours
T1 construct: purchased R&D Systems
Method: 48.5 μL of substrate peptide solution (Biotin-XSEVNLDAEFRHDSGC-Eu: Xεε-amino-n-capronic acid, Eu=Europium cryptate) was added to each well of 96-hole half-area plate (a black plate: Costar Corporation), and after addition of 0.5 μl of the test compound (dissolved in […]) and 1 μl of Recombinant human BACE1 (R&D Systems), the reaction mixture was incubated at 30° C. for 3 hours. The substrate peptide was synthesized by reacting Cryptate TBPCOOH mono SMP (CIS bio international) with Biotin-XSEVNLDAEFRHDSGC (Peptide Institute, Inc.). The final concentrations of the substrate peptide and Recombinant human BACE1 were adjusted to 18 nM and 7.4 nM respectively, and the reaction was performed in sodium acetate buffer (50 mM sodium acetate, pH 5.0, 0.008% Triton X-100). After the completion of reaction, 50 μl of 8.0 μg/ml Streptavidin-XL665 (CIS bio international) dissolved in phosphate buffer (150 mM K2HPO4—KH2PO4, pH 7.0, 0.008% Triton X-100, 0.8 M KF) was added to each well and left stand at 30° C. for an hour. Then, fluorescence intensity was measured (excitation wavelength: 320 nm, measuring wavelength: 620 nm and 665 nm) using Wallac 1420 multilabel counter (Perkin Elmer life sciences). Enzymatic activity was determined from counting ratio of each wavelength (10,000×Count 665/Count 620) and 50% inhibitory concentration against the enzymatic activity was calculated.

[1] = system: Neuroblastoma SH-SY5Y cells (SH/APPwt) with human wild-type β-APP excessively expressed; assay: Measurement of β-amyloid (Aβ) production inhibitory effect in cell; type: cell-based; settings: Homo sapiens, SH-SY5Y, 24 h, amount needed to inhibit Aβ production by 50%, 24 hours incubation, Amyloid β1-40 HTRF
Method: Neuroblastoma SH-SY5Y cells (SH/APPwt) with human wild-type β-APP excessively expressed therein were prepared at 8×10^5 cells/mL, and 150 μl portions thereof were inoculated into each well of a 96-well culture plate (Falcon). The cells were cultured for 2 hours at 37° C. in a 5% gaseous carbon dioxide incubator. Then, a solution which had been preliminarily prepared by adding and suspending the test compound (DMSO (dimethyl sulfoxide) solution) so as to be 2 μl/50 μl medium was added to the cell sap. Namely, the final DMSO concentration was 1%, and the amount of the cell culture was 200 μl. After the incubation was performed for 24 hours from the addition of the test compound, 100 μl of the culture supernatant was collected from each fraction. The amount of the Aβ in each fraction was measured.
The […] was measured as follows. 10 μl of a homogeneous time resolved fluorescence (HTRF) measurement reagent (Amyloid β1-40 peptide; IBA Molecular Holding, S.A.) and 10 μl of the culture supernatant were put into a 384-well half area microplate (black microplate, Costar) and mixed with each other, and then left standing overnight at 4° C. while the light was shielded. Then, the fluorescence intensity (excitation wavelength: 337 nm, measurement wavelength: 620 nm and 665 nm) was measured with a Wallac 1420 multilabel counter (Perkin Elmer life sciences). The Aβ amount was determined from the count rate at each measurement wavelength (10000×Count 665/Count 620), and the amount needed to inhibit Aβ production by 50% (IC50) was calculated from at least six different dosages.

hERG channel = target: T2, hERG channel (Homo sapiens, UniProt Q12809); assay: hERG test (whole-cell patch clamp); type: cell-based; settings: HEK293 cells that express hERG, 5 μM test compound for 7 minutes, peak tail current, read-out: Inhibition Rate (%)
T2 construct: expressed in transfected cells; host or cells: HEK293
T2 sequence (Q12809 whole entry): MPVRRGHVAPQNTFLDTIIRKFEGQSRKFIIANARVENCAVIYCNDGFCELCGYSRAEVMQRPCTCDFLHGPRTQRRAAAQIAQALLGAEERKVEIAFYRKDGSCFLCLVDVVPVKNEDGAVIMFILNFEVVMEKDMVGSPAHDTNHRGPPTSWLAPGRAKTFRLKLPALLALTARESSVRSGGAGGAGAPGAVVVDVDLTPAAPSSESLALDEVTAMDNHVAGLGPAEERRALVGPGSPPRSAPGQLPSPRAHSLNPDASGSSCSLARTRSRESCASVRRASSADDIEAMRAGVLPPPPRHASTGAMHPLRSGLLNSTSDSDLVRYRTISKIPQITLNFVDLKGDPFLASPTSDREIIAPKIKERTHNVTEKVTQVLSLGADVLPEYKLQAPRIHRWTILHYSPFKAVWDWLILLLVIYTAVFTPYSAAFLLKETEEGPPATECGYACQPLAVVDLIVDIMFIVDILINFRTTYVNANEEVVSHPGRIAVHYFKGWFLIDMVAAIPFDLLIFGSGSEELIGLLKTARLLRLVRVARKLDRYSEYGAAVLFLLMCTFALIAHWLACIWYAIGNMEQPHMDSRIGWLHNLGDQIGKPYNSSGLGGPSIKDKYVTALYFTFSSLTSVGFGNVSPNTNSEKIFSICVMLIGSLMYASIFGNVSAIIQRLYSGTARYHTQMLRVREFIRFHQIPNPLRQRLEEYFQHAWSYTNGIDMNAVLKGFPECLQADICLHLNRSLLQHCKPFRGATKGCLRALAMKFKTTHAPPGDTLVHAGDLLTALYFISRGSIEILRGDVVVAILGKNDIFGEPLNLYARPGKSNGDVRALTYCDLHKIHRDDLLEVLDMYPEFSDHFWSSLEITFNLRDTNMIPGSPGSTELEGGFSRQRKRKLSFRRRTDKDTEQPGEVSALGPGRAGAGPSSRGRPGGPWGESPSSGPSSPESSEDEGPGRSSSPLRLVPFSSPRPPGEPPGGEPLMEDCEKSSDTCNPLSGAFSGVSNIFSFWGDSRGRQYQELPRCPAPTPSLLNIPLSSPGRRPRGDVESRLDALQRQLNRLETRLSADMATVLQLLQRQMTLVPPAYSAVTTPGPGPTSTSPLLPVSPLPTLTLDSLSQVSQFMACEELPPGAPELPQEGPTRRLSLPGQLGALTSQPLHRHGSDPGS
Method: As risk assessment for QT prolongation in vitro, the action on delayed rectifier potassium current was studied using a HEK293 cell with a human delayed potassium ether-a-go-go related gene (hERG) channel expressed therein.
A cell was maintained at a membrane potential of −80 mV, then +50 mV of a depolarizing stimulus (2 seconds) was applied to the cell, further −50 mV of a repolarizing stimulus (2 seconds) was applied thereto and the induced peak tail current was measured by a whole-cell patch clamp technique. 5 μM of the test compounds was applied to the cells for 7 minutes, the inhibition rate before application of the test compound was calculated, and it was compared to the rate of vehicle group (0.5% dimethylsulfoxide solution).

CYP3A4 = CYP3A4 (Homo sapiens, UniProt P08684); assay: CYP3A4 fluorescent MBI test; type: in vitro ADME; parameters: host or cells: E. coli; settings: (IC50 without pre reaction) − (IC50 with pre reaction), pre-reaction 0 or 30 minutes
Sequence of CYP3A4 (P08684 whole entry): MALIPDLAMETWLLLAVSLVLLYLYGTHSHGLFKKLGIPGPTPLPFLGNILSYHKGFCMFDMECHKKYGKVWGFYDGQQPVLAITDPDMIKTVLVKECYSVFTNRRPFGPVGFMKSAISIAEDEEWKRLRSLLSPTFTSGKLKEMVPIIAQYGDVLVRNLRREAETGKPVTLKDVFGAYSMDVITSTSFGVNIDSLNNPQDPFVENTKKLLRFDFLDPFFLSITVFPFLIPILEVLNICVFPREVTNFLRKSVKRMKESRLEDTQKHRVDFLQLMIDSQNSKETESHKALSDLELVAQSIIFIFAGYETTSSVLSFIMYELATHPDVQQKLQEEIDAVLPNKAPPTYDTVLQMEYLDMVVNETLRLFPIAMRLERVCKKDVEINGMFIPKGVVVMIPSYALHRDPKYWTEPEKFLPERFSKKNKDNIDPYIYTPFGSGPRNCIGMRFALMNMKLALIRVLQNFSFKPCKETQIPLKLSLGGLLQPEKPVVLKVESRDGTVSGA
Method: The CYP3A4 fluorescent MBI test is a test to examine enhancement of CYP3A4 inhibition by metabolic reaction of the compound. Here, E. coli-expressing CYP3A4 was used as an enzyme, and a reaction wherein 7-benzyloxy trifluoromethylcumarin (BFC) was debenzylated by the CYP3A4 enzyme into a fluorescent metabolite 7-hydroxytrifluoromethylcumarin (HFC) was employed as an indicator reaction. The reaction conditions were as follows.
Substrate: 5.6 μM/L 7-BFC
Pre-reaction time: 0 or 30 minutes
Reaction time: 15 minutes
Reaction temperature: 25° C. (room temperature)
CYP3A4 content (E. coli-expressing enzyme): 62.5 pmol/mL at pre-reaction, 6.25 pmol/mL at reaction (10-fold diluted)
Test compound concentration: 0.625, 1.25, 2.5, 5, 10, and 20 μM (six different concentrations).
The enzyme and a test compound solution were added to a K-Pi buffer (pH 7.4) in the aforementioned amounts for the pre-reaction so that a pre-reaction solution was prepared, and this solution was put into a 96-well microplate. Part of this solution was transferred to another 96-well microplate such that it was diluted with the substrate and the K-Pi buffer to get a 10-fold diluted solution. NADPH, which is a coenzyme, was added so as to trigger the indicator reaction (without pre-reaction). As the reaction proceeded for a predetermined time period, acetonitrile/0.5 M Tris (tris hydroxyaminomethane)=4/1 was added to terminate the reaction. NADPH was also added to the residual pre-reaction solution so as to trigger the pre-reaction (with pre-reaction). As the pre-reaction proceeded for a predetermined time period, part of the solution was transferred to another microplate so that the solution was diluted with the substrate and the K-Pi buffer to get a 10-fold diluted solution, and then the indicator reaction was triggered. As the reaction proceeded for a predetermined time period, acetonitrile/0.5 M Tris (tris hydroxyaminomethane)=4/1 was added so as to terminate the reaction. With respect to each of the microplates on which the indicator reaction was performed, the fluorescence value of the metabolite 7-HFC was measured with a fluorescence plate reader (Ex=420 nm, Em=535 nm).
Control (100%) was prepared by adding only DMSO, which was used as a solvent to dissolve the drug, to the reaction system. The remaining activity (%) at each concentration after adding the test compound solution was calculated, and the IC50 values of without pre reaction and with pre reaction were calculated by the formula: y=A+((B−A)/(1+((C/x)^D))) using XLfit. The IC50 shift value was calculated by the formula: (the IC50 value of without pre reaction)−(the IC50 value of with pre reaction).

Solubility test = type: physicochemical; settings: JP-I medium with 2% DMSO, pH 1.2, simulated gastric fluid, kinetic from dmso stock, turbidity after 4 hours
Method: A 2-fold dilution series (12 points) of a 10 mM solution of a test compound in DMSO was added to a medium (JP-I, JP-II) (2%), and solubility was assessed by 3 stages (High; >40 μM, Medium; 3-40 μM, Low; <3 μM) from a turbidity after 4 hours (crystallization information).

T1 sequence (P56817 46-501): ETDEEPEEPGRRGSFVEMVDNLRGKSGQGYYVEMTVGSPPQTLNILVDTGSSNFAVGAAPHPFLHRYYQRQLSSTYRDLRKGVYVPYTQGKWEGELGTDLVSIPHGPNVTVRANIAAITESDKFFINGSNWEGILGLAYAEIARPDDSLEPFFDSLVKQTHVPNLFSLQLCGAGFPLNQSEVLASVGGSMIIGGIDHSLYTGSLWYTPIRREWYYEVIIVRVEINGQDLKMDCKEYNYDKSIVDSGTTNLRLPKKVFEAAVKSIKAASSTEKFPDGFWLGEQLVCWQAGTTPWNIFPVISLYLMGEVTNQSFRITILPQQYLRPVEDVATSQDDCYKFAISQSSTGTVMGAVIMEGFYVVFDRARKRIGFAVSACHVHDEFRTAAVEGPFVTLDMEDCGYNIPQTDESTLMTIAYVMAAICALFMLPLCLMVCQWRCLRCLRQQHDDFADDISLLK

| IC50 (Recombinant human BACE1) | IC50 [1] | IC50 shift (CYP3A4) | solubility at 4 h (Solubility test) | Compound | inhibition at 7 min, 5 µM (hERG channel) |
| --- | --- | --- | --- | --- | --- |
| ≤ 1 µM | 0.119 µM | 1 µM | – | CC#CCOc1cnc(C(=O)Nc2cccc(C/N=C(/N)SCc3ccccc3)c2)cn1 [Compound 4] | – |
| ≤ 1 µM | 0.16 µM | -2 µM | – | C=CCS/C(N)=N\Cc1cccc(NC(=O)c2cnc(OCC#CC)cn2)c1 [Compound 5] | – |
| 1.21 µM | 0.082 µM | <-2 µM | – | CC#CCOc1cnc(C(=O)Nc2cccc(C/N=C(/N)SCC)c2)cn1 [Compound 7] | – |
| ≤ 1 µM | 0.04 µM | -4 µM | – | CC#CCOc1cnc(C(=O)Nc2cccc(C/N=C(/N)SCCC)c2)cn1 [Compound 8] | – |
| ≤ 1 µM | 0.061 µM | -5 µM | – | CC#CCOc1cnc(C(=O)Nc2cccc(C/N=C(/N)SCCCC)c2)cn1 [Compound 9] | – |
| 0.27 µM | 0.036 µM | <-2 µM | – | CC#CCOc1cnc(C(=O)Nc2cccc(C/N=C(/N)SCc3ccncc3)c2)cn1.O=CO [Compound 12] | – |
| 0.14 µM | 0.004 µM | <-3 µM | – | CC#CCOc1cnc(C(=O)Nc2ccc(F)c(C3(/N=C(/N)SC)CC3)c2)cn1 [Compound 15] | 31.5% |
| – | – | 0 µM | – | CS/C(N)=N\Cc1cccc(NC(=O)c2cnc(C)cn2)c1 [Compound 18] | 10.8% |
| – | – | 0 µM | – | CS/C(N)=N\C1(c2cccc(NC(=O)c3cnc(C)cn3)c2)CCCC1 [Compound 30] | 14.1% |
| – | 0.26 µM | 0 µM | – | CS/C(N)=N/C1CCc2ccc(NC(=O)c3ccc(C#N)cn3)cc21 (stereo not shown) [Compound 32] | – |
| – | ≤ 1 µM | – | > 40 µM | CO/C(N)=N\Cc1cc(NC(=O)c2cnc(C)cn2)ccc1F [Compound 40] | – |
| – | 0.028 µM | – | > 40 µM | CO/C(N)=N\C1(c2cccc(NC(=O)c3cnc(OC)cn3)c2)CC1 [Compound 45] | 2.5% |

Second part, the molecule before the results:

| Compound | IC50 (Recombinant human BACE1) | IC50 [1] | IC50 shift (CYP3A4) | solubility at 4 h (Solubility test) | inhibition at 7 min, 5 µM (hERG channel) |
| --- | --- | --- | --- | --- | --- |
| CS/C(N)=N\C1(c2cc(NC(=O)c3ccc(C#N)cn3)ccc2F)CC1 [Compound 1] | 3.67 µM | 0.055 µM | 0 µM | – | 63.8% |
| CS/C(N)=N\Cc1cc(NC(=O)c2ccc(C#N)cn2)ccc1F [Compound 2] | – | 0.1 µM | 0 µM | – | – |
| CC#CCOc1cnc(C(=O)Nc2cccc(C/N=C(/N)SC)c2)cn1 [Compound 3] | 0.13 µM | 0.005 µM | 0 µM | – | 67.6% |
| CC#CCOc1cnc(C(=O)Nc2cccc(C/N=C(/N)SCCc3ccccc3)c2)cn1 [Compound 6] | ≤ 1 µM | 0.172 µM | -2 µM | – | – |
| CC#CCOc1cnc(C(=O)Nc2cccc(C/N=C(/N)SCc3ccccn3)c2)cn1.O=CO [Compound 11] | 0.29 µM | 0.524 µM | -2 µM | – | – |
| CS/C(N)=N\c1cccc2ccc(NC(=O)c3ccc(C#N)cn3)cc12 [Compound 28] | 0.79 µM | 0.193 µM | 1 µM | > 40 µM | 60.4% |
| CS/C(N)=N\C1(c2cccc(NC(=O)c3ccc(C#N)cn3)c2)CCCC1 [Compound 31] | – | ≤ 1 µM | – | > 40 µM | – |
| CN(C)CCCO/C(N)=N/Cc1cccc(NC(=O)c2ccc(C#N)cn2)c1 [Compound 38] | – | ≤ 1 µM | – | – | 8.4% |
